Data reported in patent US9255088B2, “Premature-termination-codons readthrough compounds” (The Regents of the University of California, priority 2010, dated 2016).

Assays:
[1] = tested on: ATM-Ser1981 foci in AT153LA cells (TGA A); assay: Irradiation-induced ATM-Ser1981 foci (IRIF) in AT153LA cells; on IRIF (ATMs1981): key: the positive results on various assays are also summarized and labeled as '+'; type: cell-based, human; details: for IR-induced ATMs1981 foci formation, readthrough activity: A-T153LA cells (TGA), FIG. 13; for IRIF-ATM (%) (30 μM): Table 4, IR-induced ATMs1981 nuclear foci formation; for IRIF (ATMs1981): summary of positive results
Description: To evaluate the function of RTC-induced ATM protein, we measured irradiation-induced foci (IRIF) formation of ATM-Ser1981 in the same ATI53LA cells (TGA A). […] The maximum IRIF induction achieved in A-T cells by 10 μM RTC#13 was ˜40% of wild-type level. As a positive readthrough control, 144 μM of G418 (100 μg/ml) was used to treat cells. Our previous studies had shown that, at this concentration, […] induced a maximum level of ATMs1981 IRIF (Lai et al., 2004).
Immunostaining of nuclear foci of ATM-Ser1981 was performed as previously reported (Du et al., 2007). In brief, after being treated with compound for 4 d, cells were irradiated with 2 Gy and incubated at 37° C. for 30 min. The cells were dropped onto coverslips, fixed with 4% paraformaldehyde, and permeabilized. Coverslips were blocked for 1 h and incubated with mouse anti-ATM pSer1981 for 1 h (1:500; Rockland Immunochemicals, Inc). After a second blocking, cells were stained with FITC-conjugated anti-mouse IgG (1:150; Jackson ImmunoResearch Laboratories) for 1 h and mounted onto slides.
Studies on IR-induced ATMs1981 foci formation by RTC#13 and derivatives 13a, 13b, 13d, 13e, 13f, 13g, 13h, 13i, 13j, and 13k in A-T153LA cells (TGA) were performed according to the procedures provided in Example 1.
(§1) These two series, 13 and 15, were again tested for readthrough activity using the assay in which the ATM protein kinase activity was measured by functional flow cytometry (FC-ATM) (Table 4 and FIG. 12). A second assay, irradiation (1R)-induced ATMs1981 nuclear foci formation (IRIF-ATM), was also used to confirm the readthrough activity of these compounds (Table 4 and FIG. 13). Table 3 summarizes the data for the analogues 13 and 15 (at 30 μM), in which the groups R, R′, and X were varied. More detailed data are reported in FIG. 5 (for FC-ATM assay), and in FIG. 6 (for IRIF-ATM assay). […] Thus, the pyrimidinedione unit serves as a good structural replacement for the 2-imino and 2-thioxo thiazolidin-4-one units.

[2] = tested on: ATMs1981 autophosphorylation in AT153LA cells (TGA); assay: Flow cytometry ATMs1981 autophosphorylation (FC-ATM) in AT153LA cells; type: cell-based, human; set-up: FC-ATM (Delta-FI, 30 μM): unit not given here; details: for FCATMs1981: summary of positive results; on FCATMs1981: key: the positive results on various assays are also summarized and labeled as '+'
Description: FC-SMC1 assay was performed as recently described (Nahas et al., 2009). FC-ATM-Ser1981 assay was based on Honda's assay (Honda et al., 2009, Leukemia. 23:409-414) with modifications. In brief, cells were resuspended in PBS and radiated for 10 Gy. After 1 h, the cells were fixed and permeabilized using the FIX & PERM cell permeabilization kit (Invitrogen). The cells were then incubated with 1 μl of mouse ATM-Ser1981 antibody (Cell Signaling Technology) for 2 h at room temperature. Cells were washed and resuspended in 100 μl PBS with Alexa Fluor 488 anti-mouse IgG (Invitrogen) for 45 min. Cells were next washed and resuspended in PBS with 0.2% paraformaldehyde and analyzed using a FACSCalibur (BD).
Studies on readthrough activity of RTC#13 derivatives as measured by FC-ATMS 1981 were performed according to the procedures provided in Example 1.
These two series, 7 and 9, were tested for readthrough activity using an assay in which the ATM protein kinase activity was measured using a flow cytometry-based ATMs1981 autophosphorylation assay (FC-ATM) (Nahas, S. A; et al., Clin. Chem. 2009, 55, 463-72). […] An increased Delta-FI indicates the restoration of ATM kinase activity by a compound.
as §1

[3] = Table 4, compounds 13 and 15, 30 μM
[4] = Table 2, compounds 7, 30 µM, change in fluorescence intensity before and after ionizing radiation

Structure (SMILES) | IRIF-ATM (%) (30 μM) [1] | FC-ATM (Delta-FI, 30 μM) [2, 3] | FCATMs1981 [2] | FC-ATM (Delta-FI, 30 μM) ([2]; Table 3, compounds 9, 30 μM) | further results
Cc1cn(Cc2ccc(-c3ccccc3)o2)c(=O)[nH]c1=O [Compound 13f, 5-methyl-1-((5-phenylfuran-2-yl)methyl)pyrimidine-2,4(1H,3H)-dione] | 22.75% | 3.80 | + | – | IR-induced ATMs1981 foci formation, readthrough activity [1]: statistically significant readthrough activity; IRIF (ATMs1981) [1]: +
O=C1NC(=S)S/C1=C\c1cc2ccccc2o1 [Compound 9g, (Z)-5-(benzofuran-2-ylmethylene)-2-thioxothiazolidin-4-one] | – | – | + | 3.50 | FC-ATM readthrough activity [2]: positive results
N=C1NC(=O)/C(=C/c2cc3ccccc3[nH]2)S1 [Compound 9b, (Z)-5-((1H-indol-2-yl)methylene)-2-iminothiazolidin-4-one] | – | – | – | negative | –
O=C1NC(=S)S/C1=C\c1ccc(-c2cccc(Cl)c2)o1 [Compound 7p, (Z)-5-((5-(3-chlorophenyl)furan-2-yl)methylene)-2-thioxothiazolidin-4-one] | – | – | + | – | FC-ATM (Delta-FI, 30 μM) [2, 4]: 2.86
N=C1NC(=O)/C(=C/c2ccc(-c3ccccn3)o2)S1 [Compound 9d, (Z)-2-imino-5-((5-(pyridin-2-yl)furan-2-yl)methylene)thiazolidin-4-one] | – | – | – | negative | –
O=C1NC(=S)S/C1=C\c1c[nH]c2ccccc12 [Compound 9i, (Z)-5-((1H-indol-3-yl)methylene)-2-thioxothiazolidin-4-one] | – | – | – | negative | –
N=C1NC(=O)/C(=C/c2ccc(-c3ccccc3F)o2)S1 [Compound 7g, (Z)-5-((5-(2-fluorophenyl)furan-2-yl)methylene)-2-iminothiazolidin-4-one] | – | – | – | – | FC-ATM (Delta-FI, 30 μM) [2, 4]: negative
N=C1NC(=O)/C(=C/c2cc3ccccc3o2)S1 [Compound 9a, (Z)-5-(benzofuran-2-ylmethylene)-2-iminothiazolidin-4-one] | – | – | – | negative | –
O=c1ccn(Cc2ccc(-c3cccc(Cl)c3)o2)c(=O)[nH]1 [Compound 13i, 1-((5-(3-chlorophenyl)furan-2-yl)methyl)pyrimidine-2,4(1H,3H)-dione] | 11.33% | 5.07 | + | – | IR-induced ATMs1981 foci formation, readthrough activity [1]: statistically significant readthrough activity
O=c1ccn(Cc2ccc(-c3ccccc3F)o2)c(=O)[nH]1 [Compound 13g, 1-((5-(2-fluorophenyl)furan-2-yl)methyl)pyrimidine-2,4(1H,3H)-dione] | 20% | 5.43 | + | – | IR-induced ATMs1981 foci formation, readthrough activity [1]: all RTC#13 derivatives show statistically significant readthrough activity except for Derivative 13g
O=Cc1cn(Cc2ccc(-c3ccccc3[N+](=O)[O-])o2)c(=O)[nH]c1=O [Compound 13d, 1-((5-(2-nitrophenyl)furan-2-yl)methyl)-2,4-dioxo-1,2,3,4-tetrahydropyrimidine-5-carbaldehyde] | 16.0% | 2.24 | + | – | IR-induced ATMs1981 foci formation, readthrough activity [1]: statistically significant readthrough activity; IRIF (ATMs1981) [1]: +
Cc1cn(Cc2ccc(-c3ccccc3F)o2)c(=O)[nH]c1=O [Compound 13h, 1-((5-(2-fluorophenyl)furan-2-yl)methyl)-5-methylpyrimidine-2,4(1H,3H)-dione] | 9.6% | 6.16 | + | – | IR-induced ATMs1981 foci formation, readthrough activity [1]: statistically significant readthrough activity; IRIF (ATMs1981) [1]: +
COc1cccc(-c2ccc(/C=C3\SC(=N)NC3=O)o2)c1 [Compound 7h, (Z)-2-imino-5-((5-(3-methoxyphenyl)furan-2-yl)methylene)thiazolidin-4-one] | – | – | + | – | FC-ATM (Delta-FI, 30 μM) [2, 4]: 1.90
N=C1NC(=O)/C(=C/c2ccco2)S1 [Compound 9f, (Z)-5-(furan-2-ylmethylene)-2-iminothiazolidin-4-one] | – | – | – | negative | –
COc1ccccc1-c1ccc(/C=C2\SC(=S)NC2=O)o1 [Compound 7l, (Z)-5-((5-(2-methoxyphenyl)furan-2-yl)methylene)-2-thioxothiazolidin-4-one] | – | – | – | – | FC-ATM (Delta-FI, 30 μM) [2, 4]: negative
N=C1NC(=O)/C(=C/c2ccc(-c3cccc(Cl)c3)o2)S1 [Compound 7i, (Z)-5-((5-(3-chlorophenyl)furan-2-yl)methylene)-2-iminothiazolidin-4-one] | – | – | + | – | FC-ATM (Delta-FI, 30 μM) [2, 4]: 2.27
N=c1ccn(Cc2ccc(-c3ccccc3[N+](=O)[O-])o2)c(=O)[nH]1 [Compound 15a, 4-imino-1-((5-(2-nitrophenyl)furan-2-yl)methyl)-3,4-dihydropyrimidin-2(1H)-one] | negative | negative | – | – | –
N=c1[nH]c(=O)n(Cc2ccc(-c3ccccc3[N+](=O)[O-])o2)cc1F [Compound 15b] | negative | negative | – | – | –
CN1C(=N)S/C(=C\c2ccc(-c3ccccc3[N+](=O)[O-])o2)C1=O [Compound 7c, (Z)-2-imino-3-methyl-5-((5-(2-nitrophenyl)furan-2-yl)methylene)thiazolidin-4-one] | – | – | – | – | FC-ATM (Delta-FI, 30 μM) [2, 4]: negative
N=C1NC(=O)/C(=C/c2ccc(-c3ccccc3)s2)S1 [Compound 9e, (Z)-2-imino-5-((5-phenylthiophen-2-yl)methylene)thiazolidin-4-one] | – | – | – | negative | –
Cc1cn(Cc2ccc(-c3ccccc3[N+](=O)[O-])o2)c(=O)[nH]c1=O [Compound 13c] | negative | negative | – | – | –
O=c1ccn(Cc2ccc(-c3ccccc3)o2)c(=O)[nH]1 [Compound 13e, 1-((5-phenylfuran-2-yl)methyl)pyrimidine-2,4(1H,3H)-dione] | 9.4% | 3.42 | + | – | IR-induced ATMs1981 foci formation, readthrough activity [1]: statistically significant readthrough activity; IRIF (ATMs1981) [1]: +
COc1cccc(-c2ccc(/C=C3\SC(=S)NC3=O)o2)c1 [Compound 7o] | – | – | + | – | FC-ATM (Delta-FI, 30 μM) [2, 4]: 2.66
O=C1NC(=S)S/C1=C\c1ccc(-c2ccccn2)o1 [Compound 9j, (Z)-5-((5-(pyridin-2-yl)furan-2-yl)methylene)-2-thioxothiazolidin-4-one] | – | – | – | negative | –
N=C1NC(=O)/C(=C/c2cn(Cc3ccc(-c4ccccc4[N+](=O)[O-])o3)c(=O)[nH]c2=O)S1 [Compound 13j, (Z)-5-((2-imino-4-oxothiazolidin-5-ylidene)methyl)-1-((5-(2-nitrophenyl)furan-2-yl)methyl)pyrimidine-2,4(1H,3H)-dione] | 18% | 2.42 | + | – | IR-induced ATMs1981 foci formation, readthrough activity [1]: statistically significant readthrough activity; IRIF (ATMs1981) [1]: +
O=C1NC(=S)S/C1=C\c1ccc(-c2ccccc2C(F)(F)F)o1 [Compound 7k, (Z)-2-thioxo-5-((5-(2-(trifluoromethyl)phenyl)furan-2-yl)methylene)thiazolidin-4-one] | – | – | – | – | FC-ATM (Delta-FI, 30 μM) [2, 4]: negative
N=C1NC(=O)/C(=C/c2c[nH]c3ccccc23)S1 [Compound 9c, (Z)-5-((1H-indol-3-yl)methylene)-2-iminothiazolidin-4-one] | – | – | – | negative | –
O=C1NC(=S)S/C1=C\c1cc2ccccc2[nH]1 [Compound 9h, (Z)-5-((1H-indol-2-yl)methylene)-2-thioxothiazolidin-4-one] | – | – | – | negative | –
